Measurements reported in patent US9920010B2, “CXCR7 receptor modulators” (IDORSIA PHARMACEUTICALS LTD, priority 2013, dated 2018).

Biological target: T1, CXCR7 (Homo sapiens, UniProt P25106)
T1 construct: host or cells: CHO-K1 (PathHunter CHO-K1 CXCR7 b-arrestin cell line, stably transfected)
Assay: PathHunter CHO-K1 CXCR7 b-arrestin recruitment assay (CXCR7 agonistic activity)
Assay type: cell-based
Conditions: PathHunter CHO-K1 CXCR7 b-arrestin cell line
In short: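 Stable CHO-K1 line with C-terminally ProLink-tagged CXCR7 and β-arrestin 2–EA fusion; β-arrestin recruitment restores β-gal activity, read by chemiluminescence after 1 h RT detection. Cells seeded 24 h, starved in OPTIMEM 3–4 h, exposed to compounds 90 min at 37 °C in HBSS/HEPES/BSA. Geometric-mean EC50 from repeated measurements.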

T1 sequence (P25106 whole entry): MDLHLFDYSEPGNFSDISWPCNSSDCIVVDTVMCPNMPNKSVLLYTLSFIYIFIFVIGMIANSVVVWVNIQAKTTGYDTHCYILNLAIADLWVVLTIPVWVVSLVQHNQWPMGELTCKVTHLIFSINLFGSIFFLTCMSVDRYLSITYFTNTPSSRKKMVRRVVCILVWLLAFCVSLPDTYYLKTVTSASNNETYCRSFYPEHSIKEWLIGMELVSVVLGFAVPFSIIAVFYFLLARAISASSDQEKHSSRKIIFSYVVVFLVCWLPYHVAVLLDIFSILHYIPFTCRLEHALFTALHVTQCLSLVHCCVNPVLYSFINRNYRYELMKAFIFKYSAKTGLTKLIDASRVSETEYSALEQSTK
T1 sequence (P32121 whole entry partner): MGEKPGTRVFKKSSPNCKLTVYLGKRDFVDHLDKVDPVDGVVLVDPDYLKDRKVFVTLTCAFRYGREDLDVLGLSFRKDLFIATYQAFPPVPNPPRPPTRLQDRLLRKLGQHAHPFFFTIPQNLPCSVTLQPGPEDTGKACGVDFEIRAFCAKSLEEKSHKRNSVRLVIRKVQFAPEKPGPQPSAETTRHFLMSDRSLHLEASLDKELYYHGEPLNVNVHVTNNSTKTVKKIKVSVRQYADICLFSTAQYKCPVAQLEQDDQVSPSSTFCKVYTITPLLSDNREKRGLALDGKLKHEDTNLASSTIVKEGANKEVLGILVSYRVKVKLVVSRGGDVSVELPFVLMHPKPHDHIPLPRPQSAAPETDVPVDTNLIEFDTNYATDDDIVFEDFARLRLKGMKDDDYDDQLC

First: CN(C)CCN(Cc1ccccc1)C(=O)CNc1cccc2c1CN(CC1CCCCC1)CC2 [compound 194, N-Benzyl-2-(2-cyclohexylmethyl-1,2,3,4-tetrahydro-isoquinolin-8-ylamino)-N-(2-dimethylamino-ethyl)-acetamide]
Second: CCN1CCc2cccc(NCC(=O)N(Cc3ccccc3)C3CCNCC3)c2C1 [compound 377]
The EC50 of the first is 21-fold lower: 13 nM for the first, 276 nM for the second. The first is the more potent here.

`CN(C)CCN(Cc1ccccc1)C(=O)CNc1cccc2c1CN(C(=O)c1ccccc1)CC2` [compound 195, 2-(2-Benzoyl-1,2,3,4-tetrahydro-isoquinolin-8-ylamino)-N-benzyl-N-(2-dimethylamino-ethyl)-acetamide] and `CNCCN(Cc1ccccc1C(F)(F)F)C(=O)CNc1cccc2c1CCN(C(=O)OC)C2` [compound 394, 5-({[(2-Methylamino-ethyl)-(2-trifluoromethyl-benzyl)-carbamoyl]-methyl}-amino)-3,4-dihydro-1H-isoquinoline-2-carboxylic acid methyl ester] are within 1.5-fold of each other in EC50: 12 nM for the first, 9 nM for the second.

`CCN1Cc2c(NCC(=O)N(CCN(C)C)Cc3ccccc3Cl)cccc2C(C)(C)C1` [compound 196] and `CN(C)CCN(Cc1ccccc1Cl)C(=O)CNc1cccc2c1CN(CC1CC1)CC2(C)C` [compound 197] are within 1.5-fold of each other in EC50: 264 nM for the first, 257 nM for the second.

First: CCN1Cc2c(NCC(=O)N(CCN(C)C)Cc3ccccc3C(F)(F)F)cccc2C(C)(C)C1 [compound 198]
Second: CN(C)CCN(Cc1ccccc1C(F)(F)F)C(=O)CNc1cccc2c1CN(CC1CC1)CC2(C)C [compound 199]
The EC50 of the first is 1.5-fold higher: 388 nM for the first, 255 nM for the second.

Going from `CN1CCC(N(Cc2ccccc2C(F)(F)F)C(=O)CNc2cccc3c2CN(CC2CC2)CC3(C)C)CC1` [compound 200] to `O=C(CNc1cccc2c1CCN(CC1CC1)C2)N(Cc1ccccc1C(F)(F)F)C[C@@H]1CCNC1` [compound 379], the EC50 falls from 235 nM to 3 nM (78-fold).

Compared with `O=C(CNc1cccc2c1CCN(CC1CC1)C2)N(Cc1ccccc1C(F)(F)F)C[C@H]1CCNC1` [compound 380], `CNCCN(Cc1ccccc1C(F)(F)F)C(=O)CNc1cccc2c1CN(CC1CC1)CC2` [compound 384, 2-(2-Cyclopropylmethyl-1,2,3,4-tetrahydro-isoquinolin-8-ylamino)-N-(2-methylamino-ethyl)-N-(2-trifluoromethyl-benzyl)-acetamide] is 1.5-fold lower in EC50: 6 nM for the first, 4 nM for the second.

Going from `CNCCN(Cc1ccccc1C(F)(F)F)C(=O)CNc1cccc2c1CC(=O)N(CC(C)C)C2` [compound 383] to `CNCCN(Cc1ccccc1C(F)(F)F)C(=O)CNc1cccc2c1CCN(C(=O)C(C)C)C2` [compound 387, 2-(2-Isobutyryl-1,2,3,4-tetrahydro-isoquinolin-5-ylamino)-N-(2-methylamino-ethyl)-N-(2-trifluoromethyl-benzyl)-acetamide], the EC50 falls from 51 nM to 12 nM (4.2-fold).

Compared with `CCCC(=O)N1CCc2c(cccc2NCC(=O)N(CCNC)Cc2ccccc2C(F)(F)F)C1` [compound 386, 2-(2-Butyryl-1,2,3,4-tetrahydro-isoquinolin-5-ylamino)-N-(2-methylamino-ethyl)-N-(2-trifluoromethyl-benzyl)-acetamide], `CCCOC(=O)N1CCc2c(cccc2NCC(=O)N(CCNC)Cc2ccccc2C(F)(F)F)C1` [compound 398] is 6.8-fold higher in EC50: 12 nM for the first, 82 nM for the second.

Compared with `CNCCN(Cc1ccccc1C(F)(F)F)C(=O)CNc1cccc2c1CCN(C(=O)C1CCC1)C2` [compound 389, 2-(2-Cyclobutanecarbonyl-1,2,3,4-tetrahydro-isoquinolin-5-ylamino)-N-(2-methylamino-ethyl)-N-(2-trifluoromethyl-benzyl)-acetamide], `CNCCN(Cc1ncccc1C(F)(F)F)C(=O)CNc1cccc2c1CCN(C(=O)C1CCC1)C2` [compound 414, 2-(2-Cyclobutanecarbonyl-1,2,3,4-tetrahydro-isoquinolin-5-ylamino)-N-(2-methylamino-ethyl)-N-(3-trifluoromethyl-pyridin-2-ylmethyl)-acetamide] is 1.9-fold higher in EC50: 20 nM for the first, 37 nM for the second.

`CNCCN(Cc1ccccc1C(F)(F)F)C(=O)CNc1cccc2c1CCN(C(=O)C(C)(C)C)C2` [compound 390] and `CNCCN(Cc1ccccc1C(F)(F)F)C(=O)CNc1cccc2c1CCN(C(=O)CC(C)(C)C)C2` [compound 393] are within 1.5-fold of each other in EC50: 83 nM for the first, 110 nM for the second.

Going from `CNCCN(Cc1ccccc1C(F)(F)F)C(=O)CNc1cccc2c1CCN(C(=O)CC(C)C)C2` [compound 391, N-(2-Methylamino-ethyl)-2-[2-(3-methyl-butyryl)-1,2,3,4-tetrahydro-isoquinolin-5-ylamino]-N-(2-trifluoromethyl-benzyl)-acetamide] to `CNCCN(Cc1ccccc1C(F)(F)F)C(=O)CNc1cccc2c1CCN(C(=O)OCC(C)C)C2` [compound 401], the EC50 rises from 49 nM to 250 nM (5.1-fold). The first is the more potent here.

`CCOC(=O)N1CCc2c(cccc2NCC(=O)N(CCNC)Cc2ccccc2C(F)(F)F)C1` [compound 395, 5-({[(2-Methylamino-ethyl)-(2-trifluoromethyl-benzyl)-carbamoyl]-methyl}-amino)-3,4-dihydro-1H-isoquinoline-2-carboxylic acid ethyl ester] and `C#CCOC(=O)N1CCc2c(cccc2NCC(=O)N(CCNC)Cc2ccccc2C(F)(F)F)C1` [compound 396, 5-({[(2-Methylamino-ethyl)-(2-trifluoromethyl-benzyl)-carbamoyl]-methyl}-amino)-3,4-dihydro-1H-isoquinoline-2-carboxylic acid prop-2-ynyl ester] are within 1.5-fold of each other in EC50: 32 nM for the first, 38 nM for the second.

`C=CCOC(=O)N1CCc2c(cccc2NCC(=O)N(CCNC)Cc2ccccc2C(F)(F)F)C1` [compound 397, 5-({[(2-Methylamino-ethyl)-(2-trifluoromethyl-benzyl)-carbamoyl]-methyl}-amino)-3,4-dihydro-1H-isoquinoline-2-carboxylic acid allyl ester] and `CNCCN(Cc1ccccc1C(F)(F)F)C(=O)CNc1cccc2c1CCN(C(=O)OCCF)C2` [compound 400, 5-({[(2-Methylamino-ethyl)-(2-trifluoromethyl-benzyl)-carbamoyl]-methyl}-amino)-3,4-dihydro-1H-isoquinoline-2-carboxylic acid 2-fluoro-ethyl ester] are within 1.5-fold of each other in EC50: 35 nM for the first, 31 nM for the second.

`CNCCN(Cc1ccccc1C(F)(F)F)C(=O)CNc1cccc2c1CCN(C(=O)OC(C)C)C2` [compound 399] and `CNCCN(Cc1ccccc1C(F)(F)F)C(=O)CNc1cccc2c1CCN(C(=O)NC(C)C)C2` [compound 404] are within 1.5-fold of each other in EC50: 64 nM for the first, 60 nM for the second.

Going from `CNCCN(Cc1ccccc1C(F)(F)F)C(=O)CNc1cccc2c1CCN(C(=O)OCC(C)(C)C)C2` [compound 402] to `CNCCN(Cc1ccccc1C(F)(F)F)C(=O)CNc1cccc2c1CCN(C(=O)NC(C)(C)C)C2` [compound 406], the EC50 falls from 198 nM to 80 nM (2.5-fold). The second is the more potent here.

Going from `CCNC(=O)N1CCc2c(cccc2NCC(=O)N(CCNC)Cc2ccccc2C(F)(F)F)C1` [compound 403, 5-({[(2-Methylamino-ethyl)-(2-trifluoromethyl-benzyl)-carbamoyl]-methyl}-amino)-3,4-dihydro-1H-isoquinoline-2-carboxylic acid ethylamide] to `CCCCNC(=O)N1CCc2c(cccc2NCC(=O)N(CCNC)Cc2ccccc2C(F)(F)F)C1` [compound 405], the EC50 rises from 24 nM to 257 nM (11-fold). The first is the more potent here.

Going from `CNCCN(Cc1ccccc1C(F)(F)F)C(=O)CNc1cccc2c1CCN(C(=O)NC1CCCCC1)C2` [compound 407] to `CNCCN(Cc1ncccc1C(F)(F)F)C(=O)CNc1cccc2c1CCN(C(=O)C1CC1)C2` [compound 410, 2-(2-Cyclopropanecarbonyl-1,2,3,4-tetrahydro-isoquinolin-5-ylamino)-N-(2-methylamino-ethyl)-N-(3-trifluoromethyl-pyridin-2-ylmethyl)-acetamide], the EC50 falls from 326 nM to 5 nM (65-fold). The second is the more potent here.

`CNCCN(Cc1ncccc1C(F)(F)F)C(=O)CNc1cccc2c1CCN(C(C)=O)C2` [compound 408, 2-(2-Acetyl-1,2,3,4-tetrahydro-isoquinolin-5-ylamino)-N-(2-methylamino-ethyl)-N-(3-trifluoromethyl-pyridin-2-ylmethyl)-acetamide] and `CCC(=O)N1CCc2c(cccc2NCC(=O)N(CCNC)Cc2ncccc2C(F)(F)F)C1` [compound 409, N-(2-Methylamino-ethyl)-2-(2-propionyl-1,2,3,4-tetrahydro-isoquinolin-5-ylamino)-N-(3-trifluoromethyl-pyridin-2-ylmethyl)-acetamide] are within 1.5-fold of each other in EC50: 10 nM for the first, 8 nM for the second.

First: CCCC(=O)N1CCc2c(cccc2NCC(=O)N(CCNC)Cc2ncccc2C(F)(F)F)C1 [compound 411, 2-(2-Butyryl-1,2,3,4-tetrahydro-isoquinolin-5-ylamino)-N-(2-methylamino-ethyl)-N-(3-trifluoromethyl-pyridin-2-ylmethyl)-acetamide]
Second: CNCCN(Cc1ncccc1C(F)(F)F)C(=O)CNc1cccc2c1CCN(C(=O)COC)C2 [compound 413, 2-[2-(2-Methoxy-acetyl)-1,2,3,4-tetrahydro-isoquinolin-5-ylamino]-N-(2-methylamino-ethyl)-N-(3-trifluoromethyl-pyridin-2-ylmethyl)-acetamide]
The EC50 of the first is 1.9-fold higher: 15 nM for the first, 8 nM for the second. The second is the more potent here.

Going from `CNCCN(Cc1ncccc1C(F)(F)F)C(=O)CNc1cccc2c1CCN(C(=O)C(C)C)C2` [compound 412, 2-(2-Isobutyryl-1,2,3,4-tetrahydro-isoquinolin-5-ylamino)-N-(2-methylamino-ethyl)-N-(3-trifluoromethyl-pyridin-2-ylmethyl)-acetamide] to `CNCCN(Cc1ncccc1C(F)(F)F)C(=O)CNc1cccc2c1CCN(C(=O)CC(C)C)C2` [compound 416], the EC50 rises from 20 nM to 86 nM (4.3-fold). The first is the more potent here.

`CNCCN(Cc1ncccc1C(F)(F)F)C(=O)CNc1cccc2c1CCN(C(=O)C(C)(C)C)C2` [compound 415] and `CNCCN(Cc1ncccc1C(F)(F)F)C(=O)CNc1cccc2c1CCN(C(=O)CC(C)(C)C)C2` [compound 418] are within 1.5-fold of each other in EC50: 178 nM for the first, 148 nM for the second.

Molecule `CNCCN(Cc1ncccc1C(F)(F)F)C(=O)CNc1cccc2c1CCN(C(=O)OC)C2` [compound 419, 5-({[(2-Methylamino-ethyl)-(3-trifluoromethyl-pyridin-2-ylmethyl)-carbamoyl]-methyl}-amino)-3,4-dihydro-1H-isoquinoline-2-carboxylic acid methyl ester] has an EC50 of 6 nM.
